Measurements as given in PubChem BioAssay AID2060602 (Molecular Pharmacology Branch, DTP, NCI, 2025).
Where “and” joins values, the source holds several entries; their conditions need not be identical. Equal entries are not always repeated. Values belong to the compound of their own block, whether it stands above or below them.

Tested on: 648629-189-R-J1-PDC complex spheroids viability
Assay: Anticancer human tumor 648629-189-R-J1-PDC patient-derived bladder carcinoma cell line growth inhibition [CLK]
Conditions: for viability, T/C: stronger effect = lower value
Text: A high-throughput screen of multi-cell type tumor spheroids was designed to identify active combinations of […] and targeted small molecules. Complex spheroids include a stromal component modeled by human endothelial cells (HUVEC) and fibroblasts modeled by human mesenchymal stem cells (MSCs). The concentration ranges selected for each drug and investigational agent were based upon clinically achievable concentrations if the clinical Cmax of the agent was known.
Compounds. The drugs and investigational agents: cirtuvivint (SM08502; NSC835563), CC-671 (NSC850746), vemurafenib (NSC761431), tapotoclax (NSC804041), sotorasib (NSC818433), adagrasib (NSC831453), MRTX-1133 (NSC836407), BAY2416964 (NSC825713), copanlisib (NSC816437), inavolisib (NSC800729), abemaciclib (NSC768073), osimertinib (NSC779217), entinostat (NSC756642), eltanexor (KPT-8602, NSC794443), venetoclax (NSC766270), ceralasertib (NSC777638), bortezomib (NSC756655), olaparib (NSC753686), talazoparib (NSC767125), alisertib (NSC759677), peposertib (NSC802822), gemcitabine (NSC613327), 5-fluorouracil (NSC19893), SN-38 (NSC673596), oxaliplatin (NSC266046), paclitaxel (NSC125973), and doxorubicin (NSC123127), were obtained from the National Cancer Institute (NCI) Developmental Therapeutics Program Chemical Repository. The FDA-approved anticancer drug set is available from the Developmental Therapeutics Program at https://dtp.cancer.gov/organization/dscb/obtaining/available plates.htm. […] The stock solutions were prepared in dimethyl sulfoxide (DMSO, Sigma-Aldrich, St. Louis, MO, cat. D2650), except for the platinum complexes which were prepared in saline (Quality Biological, Gaithersburg, MD, cat. 114-055-101), at 800-fold the tested concentration and stored at -70 degrees C prior to their use. All drugs and investigational agents were tested over a range starting from a high concentration at or near the clinical Cmax and decreasing in half-log increments. If the clinical Cmax for an agent had not been determined, the highest concentration tested was 10 microM.
Cell Culture. All cells were maintained in an incubator at 37 degrees C and 5% CO2 with 95% humidity. The PDC lines were cultured according to standard operating procedures established by the NCI PDMR. Briefly, all PDCs were thawed and cultured in Matrigel-coated flasks prepared with a working solution of 1X Ham's F-12 nutrient mix, without supplementation (Invitrogen, Waltham, MA, cat. 11765054), 100 U/mL penicillin-streptomycin (Invitrogen, cat. 15140122), and 2.5% Matrigel (Corning Inc., Corning, NY, cat. 354248) for the first three passages. The 947758-054-R-J2-PDC line was cultured in 6B/Colon 1A media, which includes advanced DMEM/F-12 (Thermo Fisher Scientific, cat. 12634028), 10 mM HEPES (Thermo Fisher Scientific, cat. 15630080), 1X GlutaMAX supplement (Thermo Fisher Scientific, cat. 35050061), 0.1 mg/mL primocin (InvivoGen, cat. ant-pm-2), 10% defined fetal bovine serum, heat inactivated (HyClone Laboratories Inc., cat. SH30070.03HI), 1.25 mM N-Acetyl-L-cysteine (Sigma-Aldrich, cat. A9165), 10 mM nicotinamide (Sigma-Aldrich, cat. N0636), 1X B-27 supplement (Thermo Fisher Scientific, cat. 17504044), 1X N-2 supplement (Thermo Fisher Scientific, cat. 17502048), and 10 microM Y-27632 dihydrochloride (Tocris Bioscience, cat. 1254). The 876862-298-R-J1-PDC was cultured in 6E media, which includes all 6B/Colon 1A media components plus 50% L-WRN conditioned media (ATCC, cat. CRL-3276), 50 ng/mL recombinant human EGF recombinant protein (hEGF; Thermo Fisher Scientific, cat. PHG0311), 10 ng/mL recombinant human fibroblast growth factor 10 (hGFG-10; PeproTech, cat. 100-26), 1 ng/mL recombinant human fibroblast growth factor 2 (hFGF-2; PeproTech, cat. 100-18B), and 1 µM prostaglandin E2 (PGE2; Tocris, cat. 2296). The 227483-062-R1-J1-PDC line was cultured in Panc media, containing all 6E components except hFGF-2, with the addition of 500 nM SB-431542 (Selleckchem, cat. S1067) and 10 nM gastrin (Tocris, cat. 3006). […]

[1] = curve of first compound, second compound 0.0316 µM
[2] = curve of first compound, second compound 0.1 µM
[3] = curve of first compound, second compound 0.316 µM
[4] = curve of first compound, second compound 1 µM
[5] = curve of first compound, second compound 3.16 µM
[6] = curve of first compound, second compound 10 µM
[7] = second compound 0.0316 µM, first compound 0.0316 µM
[8] = second compound 0.0316 µM, first compound 0.1 µM
[9] = second compound 0.0316 µM, first compound 0.316 µM
[10] = second compound 0.0316 µM, first compound 1 µM
[11] = second compound 0.0316 µM, first compound 3.16 µM
[12] = second compound 0.0316 µM, first compound 10 µM
[13] = second compound 0.1 µM, first compound 0.0316 µM
[14] = second compound 0.1 µM, first compound 0.1 µM
[15] = second compound 0.1 µM, first compound 0.316 µM
[16] = second compound 0.1 µM, first compound 1 µM
[17] = second compound 0.1 µM, first compound 3.16 µM
[18] = second compound 0.1 µM, first compound 10 µM
[19] = second compound 0.316 µM, first compound 0.0316 µM
[20] = second compound 0.316 µM, first compound 0.1 µM
[21] = second compound 0.316 µM, first compound 0.316 µM
[22] = second compound 0.316 µM, first compound 1 µM
[23] = second compound 0.316 µM, first compound 3.16 µM
[24] = second compound 0.316 µM, first compound 10 µM
[25] = second compound 1 µM, first compound 0.0316 µM
[26] = second compound 1 µM, first compound 0.1 µM
[27] = second compound 1 µM, first compound 0.316 µM
[28] = second compound 1 µM, first compound 1 µM
[29] = second compound 1 µM, first compound 3.16 µM
[30] = second compound 1 µM, first compound 10 µM
[31] = second compound 3.16 µM, first compound 0.0316 µM
[32] = second compound 3.16 µM, first compound 0.1 µM
[33] = second compound 3.16 µM, first compound 0.316 µM
[34] = second compound 3.16 µM, first compound 1 µM
[35] = second compound 3.16 µM, first compound 3.16 µM
[36] = second compound 3.16 µM, first compound 10 µM
[37] = second compound 10 µM, first compound 0.0316 µM
[38] = second compound 10 µM, first compound 0.1 µM
[39] = second compound 10 µM, first compound 0.316 µM
[40] = second compound 10 µM, first compound 1 µM
[41] = second compound 10 µM, first compound 3.16 µM
[42] = second compound 10 µM, first compound 10 µM
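For viability, T/C in this document: drug exposure lasted seven days before viability readout; 100% = DMSO vehicle control wells.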

SMILES: O=c1[nH]cc(F)c(=O)[nH]1 + CN1CCN(c2cc(C(=O)Nc3cc4cc(-c5cnn(C)c5)ccc4cn3)ccn2)CC1
IC50 [1]: 1.47 µM
IC50 [2]: 1.08 µM
IC50 [3]: < 0.0316 µM
IC50 [4]: < 0.0316 µM
IC50 [5]: < 0.0316 µM
IC50 [6]: < 0.0316 µM
viability, T/C [7]: 114%
viability, T/C [8]: 121%
viability, T/C [9]: 83%
viability, T/C [10]: 63.3%
viability, T/C [11]: 30.7%
viability, T/C [12]: 21.9%
viability, T/C [13]: 114%
viability, T/C [14]: 97.7%
viability, T/C [15]: 96.3%
viability, T/C [16]: 49.1%
viability, T/C [17]: 33.7%
viability, T/C [18]: 21.9%
viability, T/C [19]: 40.7%
viability, T/C [20]: 40.6%
viability, T/C [21]: 34.1%
viability, T/C [22]: 29.9%
viability, T/C [23]: 23.9%
viability, T/C [24]: 20.7%
viability, T/C [25]: 0.35%
viability, T/C [26]: 0.26%
viability, T/C [27]: 0.78%
viability, T/C [28]: 0.34%
viability, T/C [29]: 0.27%
viability, T/C [30]: 1.43%
viability, T/C [31]: 0.06%
viability, T/C [32]: 1.49%
viability, T/C [33]: 0.1%
viability, T/C [34]: 0.07%
viability, T/C [35]: 0.55%
viability, T/C [36]: 0.1%
viability, T/C [37]: 0.06%
viability, T/C [38]: 0.27%
viability, T/C [39]: 3.05%
viability, T/C [40]: 0.13%
viability, T/C [41]: 1.38%
viability, T/C [42]: 1.3%

IC50 (curve of compound): > 10 µM
SMILES: CC(CO)NC(=O)c1cc(-c2ccc(Cl)cc2)nn(-c2cnn(C)c2)c1=O (stereo not drawn)
viability, T/C (compound 0.0316 µM): 103% and 108%
viability, T/C (compound 0.1 µM): 96.4% and 90.6%
viability, T/C (compound 0.316 µM): 95.2% and 95.5%
viability, T/C (compound 1 µM): 96.3% and 98.4%
viability, T/C (compound 3.16 µM): 88.3% and 117%
viability, T/C (compound 10 µM): 86.7% and 92.5%

IC50 (curve of compound): > 10 µM
SMILES: CC1(C)CCC(CN2CCN(c3ccc(C(=O)NS(=O)(=O)c4ccc(NCC5CCOCC5)c([N+](=O)[O-])c4)c(Oc4cnc5[nH]ccc5c4)c3)CC2)=C(c2ccc(Cl)cc2)C1
viability, T/C (compound 0.0316 µM): 102% and 96.3%
viability, T/C (compound 0.1 µM): 94.1% and 86%
viability, T/C (compound 0.316 µM): 99.4% and 93.7%
viability, T/C (compound 1 µM): 88.7% and 93.4%
viability, T/C (compound 3.16 µM): 84.9% and 93.4%
viability, T/C (compound 10 µM): 62% and 110%

IC50 [1]: 6.25 µM
IC50 [2]: 5.91 µM
IC50 [3]: < 0.0316 µM
IC50 [4]: < 0.0316 µM
IC50 [5]: < 0.0316 µM
IC50 [6]: < 0.0316 µM
SMILES: CCCS(=O)(=O)Nc1ccc(F)c(C(=O)c2c[nH]c3ncc(-c4ccc(Cl)cc4)cc23)c1F + CNC(=O)c1ccc(Nc2nc(OC3CCCC3)c3c(-c4ccc5nc(C)oc5c4)c[nH]c3n2)c(OC)c1
viability, T/C [7]: 117%
viability, T/C [8]: 104%
viability, T/C [9]: 111%
viability, T/C [10]: 89.9%
viability, T/C [11]: 98.7%
viability, T/C [12]: 18.2%
viability, T/C [13]: 75.2%
viability, T/C [14]: 83.9%
viability, T/C [15]: 94.8%
viability, T/C [16]: 94.5%
viability, T/C [17]: 105%
viability, T/C [18]: 15.8%
viability, T/C [19]: 27.9%
viability, T/C [20]: 24.1%
viability, T/C [21]: 33.6%
viability, T/C [22]: 31.2%
viability, T/C [23]: 27.6%
viability, T/C [24]: 7.72%
viability, T/C [25]: 19.7%
viability, T/C [26]: 20.6%
viability, T/C [27]: 23.2%
viability, T/C [28]: 17.9%
viability, T/C [29]: 21%
viability, T/C [30]: 9.33%
viability, T/C [31]: 16.6%
viability, T/C [32]: 21.2%
viability, T/C [33]: 19.1%
viability, T/C [34]: 20.2%
viability, T/C [35]: 20.9%
viability, T/C [36]: 11.3%
viability, T/C [37]: 20.6%
viability, T/C [38]: 21%
viability, T/C [39]: 19.1%
viability, T/C [40]: 18.9%
viability, T/C [41]: 18.7%
viability, T/C [42]: 8.45%
